Experimental data taken from patent publication US6486350B1, “Biological reagents and methods for determining the mechanism in the generation of β-amyloid peptide” (Elan Pharmaceuticals Inc., priority 1998, dated 2002).
Each block holds one compound with its values, some of them ahead of it.

Columns and labels:
[1] = tested on: low affinity Compound 1 site, membranes obtained from 293 cells; assay: Competition with 3H-Compound 1 binding to membranes from 293 cells, low affinity site; settings: 293 cell membranes, n=2
Procedure: (§1) The compound of Example 28 (Compound 3) was also tested. The high affinity ^3H-N-[8-N′-((2-(R/S)-hydroxy-2-(3,5-difluorophenyl)-acetyl-L-alaninyl)-L-phenylglycine)-3,6-dioxaoctyl]-4,4-difluoro-5,7-dimethyl-4-bora-3α,4α-diaza-s-indacene-3-propionamide (Compound 3) binding site mediates the Aβ lowering activity of Compound 1, whereas the low affinity site is irrelevant to Aβ lowering. […] This wide separation in high and low affinity Ki's (7741.5; n=2) affords a wide window of concentrations of Compound 3 where binding of the compound is almost exclusively to the high affinity Compound 1 site.

[2] = tested on: Aβ production in 293 cells; assay: Inhibition of Aβ production in 293 cells; format: cell-based; settings: Homo sapiens, HEK293, whole cell
[3] = tested on: high affinity Compound 1 (Aβ lowering) site on SWE293 cells; assay: Flow cytometry labelling of SWE293 cells with Compound 3; format: cell-based
Procedure: SWE293 cells were successfully labelled with 5 nM of Compound 3 for flow cytometry analysis (excitation 488 nm, emission 510 (+/−10) nm) to give a four fold increase in fluorescence intensity over background unlabeled cells, consistent with the binding site being in relatively low abundance. At 5 nM concentration this compound only labels the high affinity Compound 1 (Aβ lowering) site. In the presence of 1 μM 5-(S)-[N′-((S)-3,5-Difluorophenyl-α-hydroxyacetyl)-L-alaninyl]amino-7-methyl-5,7-dihydro-6H-dibenz[b,d]azepin-6-one (Example 29), (which is sufficient to completely displace all specifically bound Compound of Example 28 at >>5 nM)), the signal was reduced by 20% (p<0.001), after background subtraction. Compound 3 is obviously a very hydrophobic molecule (log P>3), and the non displaceable signal is almost certainly due to non-specific partitioning into cell membranes.

[4] = log P; format: physicochemical
[5] = target: high affinity Compound 1 binding site (Aβ lowering) in 293 membranes (Homo sapiens, UniProt P49768); assay: Saturation binding of 3H-Compound 1 in 293 membranes, high affinity site
Procedure: (§2) The pharmacological profile of ^3H-5-(S)-(N′-((S)-(+)-2-Hydroxy-3-methylbutyryl)-L-alaninyl)amino-7-methyl-5,7-dihydro-6H-dibenz[b,d]azepin-6-one (Compound 1 from Example 30) has been studied in 293 membranes. There are two distinct binding components in the membrane preparations. Saturation binding analysis utilizing 0-50 pM and 0-150 nM ^3H-Compound 1 reveal two sites (KD1=52.7 pM [Bmax1=710 fmol/mg protein]; KD2=32.5 nM [Bmax2=34.4 pmol/mg protein]).
as §1

[6] = target: low affinity Compound 1 site in 293 membranes; assay: Saturation binding of 3H-Compound 1 in 293 membranes, low affinity site; settings: 0-150 nM 3H-Compound 1, 293 membranes, read-out: KD2
Procedure: as §2, §1

- logP [4]: > 3
Structure (SMILES): Cc1cc(C)n2c1C=C1C=CC(CCC(=O)NCCOCCOCCNC(=O)C(NC(=O)C(C)NC(=O)C(O)c3cc(F)cc(F)c3)c3ccccc3)=[N+]1[B-]2(F)F (racemic) [Compound 3, N-[8-N′-((2-(R/S)-hydroxy-2-(3,5-difluorophenyl)-acetyl-L-alaninyl)-L-phenylglycinyl)amino-3,6-dioxaoctyl]-4,4-difluoro-5,7-dimethyl-4-bora-3α,4α-diaza-s-indacene-3-propionamide]
- Ki [1]: 574 nM
- IC50 [2]: 0.585 nM
- increase in fluorescence intensity over background unlabeled cells ([3]; SWE293 cells labelled with 5 nM, flow cytometry, excitation 488 nm, emission 510 (+/−10) nm): four fold

- Bmax1 [5]: 710 fmol/mg protein
- Kd [6]: 32.5 nM
Structure (SMILES): CC(C)[C@H](O)C(=O)N[C@@H](C)C(=O)NC1C(=O)N(C)c2ccccc2-c2ccccc21 (stereo partly drawn) [Compound 1, 5-(S)-(N′-((S)-(+)-2-Hydroxy-3-methylbutyryl)-L-alaninyl)amino-7-methyl-5,7-dihydro-6H-dibenz[b,d]azepin-6-one]

Structure (SMILES): C[C@H](NC(=O)[C@@H](O)c1cc(F)cc(F)c1)C(=O)N[C@@H]1C(=O)N(C)c2ccccc2-c2ccccc21 [Example 29, 5-(S)-[N′-((S)-3,5-Difluorophenyl-α-hydroxyacetyl)-L-alaninyl]amino-7-methyl-5,7-dihydro-6H-dibenz[b,d]azepin-6-one]
- reduction of Compound 3 fluorescence signal ([3]; 1 μM competitor, SWE293 cells labelled with 5 nM Compound 3, after background subtraction, p<0.001): 20%
